{
  "source": "patent US20080188460A1",
  "about": "“Tricyclic compounds, a process for their preparation and pharmaceutical compositions containing them” (LES LABORATOIRES SERVIER, priority 2007, published 2008)",
  "key": {"[1]": {"test_system": "H146 small-cell lung carcinoma cells", "details": "100 mg/kg intra-peritoneally every day for 21 days", "description": "The anti-tumour activity of the compounds of the invention is evaluated in a xenotransplant model of H146 small-cell lung carcinoma cells.\n5×10^6 H146 cells are transplanted sub-cutaneously into immunosuppressed mice (NOD SCID strain). […] The tumour mass is measured twice a week from the commencement of treatment."}, "MV4;11 cells": {"test_system": "MV4;11 cells", "details": "at 0.1 μM, 6 hours exposure", "description": "(§1) This study was carried out on three human tumour cell lines: • 1 small-cell lung carcinoma, H146, • 1 acute myeloid leukaemia, MV4; 11, • 1 leukaemia, RS4; 11.\n(§2) The cell lines are cultured in an incubator at 37° C. in the presence of 5% CO2. The H146 and RS4;11 cells are cultured in complete RPMI 1640 medium containing 10% foetal calf serum, 2 mM of glutamine, 50 units/ml of penicillin, 50 μg/ml of streptomycin and 10 mM of Hepes buffer, pH=7.4.\n(§3) The cells are distributed onto 6-well plates and exposed to the test compounds for 6 hours. They are then harvested and lysed and the caspase activity is measured in the cell lysates. This enzymatic measurement is carried out by measuring the appearance of a fluorigenic cleavage product (Pharmacia)."}, "RS4;11 cells": {"test_system": "RS4;11 cells", "details": "at 1 μM, 6 hours exposure", "description": "as §1, §2, §3"}, "H146 cells": {"test_system": "H146 cells", "details": "at 3 μM, 6 hours exposure", "description": "as §1, §2, §3"}, "MV4;11": {"test_system": "MV4;11", "details": "read-out: IC50 (concentration of compound that inhibits cell viability by 50%); MV4;11, 48 hours exposure", "description": "(§4) The cytotoxicity studies were carried out on the three tumour lines of Example A. The cells are distributed onto microplates and exposed to the test compounds for 48 hours. The cell viability is then quantified by a colorimetric assay, the Microculture Tetrazolium Assay (Cancer Res., 1987, 47, 939-942)."}, "RS4;11": {"test_system": "RS4;11", "details": "read-out: IC50 (concentration of compound that inhibits cell viability by 50%); RS4;11, 48 hours exposure", "description": "as §4"}, "H146": {"test_system": "H146", "details": "read-out: IC50 (concentration of compound that inhibits cell viability by 50%); H146, 48 hours exposure", "description": "as §4"}},
  "data": [
    {"molecule": "CN(C)CC[C@H](CSc1ccccc1)Nc1ccc(S(=O)(=O)NC(=O)c2ccc3c(c2)CC[C@@H]2CN(Cc4ccccc4-c4ccc(Cl)cc4)CCN32)cc1[N+](=O)[O-].Cl.Cl", "note": "[Example 20]", "values": [
      {"measurement": "persistence of the effect after the end of treatment", "setting": "[1]", "value": "at least 40 days"},
      {"measurement": "tumour regression", "setting": "[1]", "value": "almost complete tumour regression"},
      {"measurement": "caspase activity", "setting": "MV4;11 cells", "value": 20000, "unit": "IU"},
      {"measurement": "caspase activity", "setting": "RS4;11 cells", "value": 23000, "unit": "IU"},
      {"measurement": "caspase activity", "setting": "H146 cells", "value": 22000, "unit": "IU"},
      {"measurement": "IC50", "setting": "MV4;11", "value": 29.5, "unit": "nM"},
      {"measurement": "IC50", "setting": "RS4;11", "value": 16.5, "unit": "nM"},
      {"measurement": "IC50", "setting": "H146", "value": 305, "unit": "nM"}
    ]}
  ]
}
